Assay results taken from patent US9283222B2 (priority 2006, dated 2016).

Molecular target: Recombinant Human Poly(ADP-Ribose) Polymerase (PARP), PARP-1 (Homo sapiens (Human), UniProt P09874)
Conditions: read-out: PARP-1 (Ki); Table 1; text calls the values EC50s

Chain of Recombinant Human Poly(ADP-Ribose) Polymerase (PARP), PARP-1 (P09874 whole entry): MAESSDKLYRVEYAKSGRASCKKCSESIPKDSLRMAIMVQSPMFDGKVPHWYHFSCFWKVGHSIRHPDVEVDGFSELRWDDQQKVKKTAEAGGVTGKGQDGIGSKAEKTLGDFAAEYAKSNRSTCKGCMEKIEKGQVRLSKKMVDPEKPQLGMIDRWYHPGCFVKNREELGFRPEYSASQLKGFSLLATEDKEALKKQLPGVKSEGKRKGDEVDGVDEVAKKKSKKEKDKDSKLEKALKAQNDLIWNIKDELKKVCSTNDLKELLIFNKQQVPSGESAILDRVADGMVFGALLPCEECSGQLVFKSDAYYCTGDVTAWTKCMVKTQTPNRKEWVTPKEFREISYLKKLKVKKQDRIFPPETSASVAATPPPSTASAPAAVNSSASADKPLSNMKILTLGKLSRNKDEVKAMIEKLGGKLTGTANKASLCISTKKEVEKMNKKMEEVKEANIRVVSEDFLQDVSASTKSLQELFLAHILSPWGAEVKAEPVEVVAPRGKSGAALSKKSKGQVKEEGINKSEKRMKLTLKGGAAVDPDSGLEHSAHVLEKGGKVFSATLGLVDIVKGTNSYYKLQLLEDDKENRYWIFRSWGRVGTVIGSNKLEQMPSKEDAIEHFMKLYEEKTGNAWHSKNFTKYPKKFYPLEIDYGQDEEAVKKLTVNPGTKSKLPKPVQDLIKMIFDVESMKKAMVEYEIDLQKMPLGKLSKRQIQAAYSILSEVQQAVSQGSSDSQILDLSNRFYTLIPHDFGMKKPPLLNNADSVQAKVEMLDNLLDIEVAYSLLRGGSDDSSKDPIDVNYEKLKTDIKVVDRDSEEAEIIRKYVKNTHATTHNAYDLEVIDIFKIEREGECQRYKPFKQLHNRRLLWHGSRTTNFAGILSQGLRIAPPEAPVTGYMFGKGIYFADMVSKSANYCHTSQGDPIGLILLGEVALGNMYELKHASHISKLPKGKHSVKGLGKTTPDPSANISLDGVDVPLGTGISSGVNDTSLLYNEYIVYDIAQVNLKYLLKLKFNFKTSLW

| SMILES | Ki |
| --- | --- |
| O=C1CC[C@@H]2COc3ccc(Cc4n[nH]c(=O)c5c4CCCC5)cc3N12 [Example 371] | 14 nM |
| NC(=O)c1cccc(-c2cc(Cc3n[nH]c(=O)c4c3CCCC4)ccc2F)c1 [Example 252, 2′-fluoro-5′-((4-oxo-3,4,5,6,7,8-hexahydrophthalazin-1-yl)methyl)-1,1′-biphenyl-3-carboxamide] | 19 nM |
| O=C(NCCc1ccc(-c2ccccc2)cc1)c1cccc(Cc2n[nH]c(=O)c3c2CCCC3)c1 [Example 393, N-(2-(1,1′-biphenyl-4-yl)ethyl)-3-((4-oxo-3,4,5,6,7,8-hexahydrophthalazin-1-yl)methyl)benzamide] | 70 nM |
| O=C(c1cc(Cc2n[nH]c(=O)c3c2CCCC3)ccc1F)N1CCN(c2cccc(C(F)(F)F)c2)CC1 [Example 621, 4-[4-fluoro-3-({4-[3-(trifluoromethyl)phenyl]piperazin-1-yl}carbonyl)benzyl]-5,6,7,8-tetrahydrophthalazin-1(2H)-one] | 8 nM |
| CC(Cc1n[nH]c(=O)c2c1CCCC2)c1ccc(F)c(-c2cccc(C(=O)NC3CC3)c2)c1 (centres unmarked) [Example 277, N-cyclopropyl-2′-fluoro-5′-(1-methyl-2-(4-oxo-3,4,5,6,7,8-hexahydrophthalazin-1-yl)ethyl)-1,1′-biphenyl-3-carboxamide] | 436 nM |
| NC(=O)C1CCN(C(=O)c2cccc(Cc3n[nH]c(=O)c4c3CCCC4)c2)CC1 [Example 430, 1-(3-((4-oxo-3,4,5,6,7,8-hexahydrophthalazin-1-yl)methyl)benzoyl)piperidine-4-carboxamide] | 5 nM |

More lines, in order of falling Ki, values ahead:

| Ki | SMILES |
| --- | --- |
| 292 nM | O=C(Nc1cccc(Cc2n[nH]c(=O)c3c2CCCC3)c1)c1ccc(F)cc1F [Example 182, 2,4-difluoro-N-(3-((4-oxo-3,4,5,6,7,8-hexahydrophthalazin-1-yl)methyl)phenyl)benzamide] |
| 48 nM | O=C(Nc1cccc(Cc2n[nH]c(=O)c3c2CCCC3)c1)c1ccc(I)cc1 [Example 247, 4-iodo-N-(3-((4-oxo-3,4,5,6,7,8-hexahydrophthalazin-1-yl)methyl)phenyl)benzamide] |
| 16 nM | O=C(c1cccc(Cc2n[nH]c(=O)c3c2CCCC3)c1)N1CCN(CCOCCO)CC1 [Example 443, 4-(3-((4-(2-(2-hydroxyethoxy)ethyl)piperazin-1-yl)carbonyl)benzyl)-5,6,7,8-tetrahydrophthalazin-1(2H)-one] |
| 10 nM | O=C(c1cc(Cc2n[nH]c(=O)c3c2CCCC3)ccc1F)N1CCN(Cc2ccccc2Cl)CC1 [Example 518, 4-(3-{[4-(2-chlorobenzyl)piperazin-1-yl]carbonyl}-4-fluorobenzyl)-5,6,7,8-tetrahydrophthalazin-1(2H)-one] |
| 4 nM | O=C(c1cc(Cc2n[nH]c(=O)c3c2NCCC3)ccc1F)N1CCN(CCN2CCOCC2)CC1 [Example 566, 8-(4-fluoro-3-{[4-(2-morpholin-4-ylethyl)piperazin-1-yl]carbonyl}benzyl)-2,3,4,6-tetrahydropyrido[2,3-d]pyridazin-5(1H)-one] |
| 3 nM | CN1CCCN(C(=O)c2cc(Cc3n[nH]c(=O)c4c3NCCC4)ccc2F)CC1 [Example 509, 8-{4-fluoro-3-[(4-methyl-1,4-diazepan-1-yl)carbonyl]benzyl}-2,3,4,6-tetrahydropyrido[2,3-d]pyridazin-5(1H)-one] |
| 1.5 nM | O=C(c1cccnc1)N1CCN(C(=O)c2cc(Cc3n[nH]c(=O)c4c3NCCC4)ccc2F)CC1 [Example 661, 8-(4-fluoro-3-{[4-(pyridin-3-ylcarbonyl)piperazin-1-yl]carbonyl}benzyl)-2,3,4,6-tetrahydropyrido[2,3-d]pyridazin-5(1H)-one] |
| 1.4 nM | O=C(c1cscn1)N1CCN(C(=O)c2cc(Cc3n[nH]c(=O)c4c3NCCC4)ccc2F)CC1 [Example 705, 8-(4-fluoro-3-{[4-(1,3-thiazol-4-ylcarbonyl)piperazin-1-yl]carbonyl}benzyl)-2,3,4,6-tetrahydropyrido[2,3-d]pyridazin-5(1H)-one] |
